Structures are written as SMILES.

The target of one test is Endothelial lipase (EL) (Homo sapiens (Human), UniProt Q9Y5X9). The test can be described thus: Endothelial lipase (EL) enzymatic assay with fluorescent substrate A10070 in DMPG vesicles. The format is biochemical.
Sequence of Endothelial lipase (EL) (Q9Y5X9 21-500): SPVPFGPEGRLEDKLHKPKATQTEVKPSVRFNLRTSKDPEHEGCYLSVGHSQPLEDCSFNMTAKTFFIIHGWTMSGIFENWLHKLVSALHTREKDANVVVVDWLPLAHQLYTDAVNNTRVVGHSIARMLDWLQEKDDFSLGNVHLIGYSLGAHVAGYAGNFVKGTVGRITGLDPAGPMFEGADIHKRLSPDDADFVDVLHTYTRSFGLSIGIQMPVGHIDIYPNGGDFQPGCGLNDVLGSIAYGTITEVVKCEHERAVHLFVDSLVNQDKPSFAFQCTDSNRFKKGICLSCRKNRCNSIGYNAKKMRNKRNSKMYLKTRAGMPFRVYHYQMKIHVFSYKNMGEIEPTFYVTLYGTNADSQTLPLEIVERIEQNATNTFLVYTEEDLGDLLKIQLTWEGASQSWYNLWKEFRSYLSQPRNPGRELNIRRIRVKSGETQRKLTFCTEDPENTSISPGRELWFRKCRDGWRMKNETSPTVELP
Conditions: not given
In outline: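 Substrate A10070 sits in sonicated DMPG vesicles at 0.11 mole fraction. Lipase and compound preincubated 30 min, 37° C, in HEPES pH 8.0 buffer with CaCl2.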
In the case of `O=C(CNC(=O)C(c1nc2ccc(-c3ccc(F)nc3)cc2s1)S(=O)(=O)c1cccnc1)NC1CC1` (stereo not drawn) [Example 467, N-[(cyclopropyl-carbamoyl)methyl]-2-[6-(6-fluoropyridin-3-yl)-1,3-benzothiazol-2-yl]-2-(pyridine-3-sulfonyl) acetamide], half-maximal inhibition (IC50) required 193 nM.
`O=C(CNC(=O)C(c1nc2ccc(-c3ccc4c(c3)CNC4=O)cc2s1)S(=O)(=O)c1cccnc1)NC1CC1` (stereo not drawn) [Example 468, N-[(cyclopropyl-carbamoyl)methyl]-2-[6-(1-oxo-2,3-dihydro-1H-isoindol-5-yl)-1,3-benzothiazol-2-yl]-2-(pyridine-3-sulfonyl) acetamide]: inhibition was half-maximal at 6 nM (IC50).
Take `Cc1ncc(-c2cc(C)c3nc(C(C(=O)NCC(=O)NC4CC4)S(=O)(=O)c4ccc(F)cc4)sc3c2)cn1` (stereo not drawn) [Example 469, N-[(cyclopropyl-carbamoyl)methyl]-2-(4-fluorobenzene-sulfonyl)-2-[4-methyl-6-(2-methylpyrimidin-5-yl)-1,3-benzothiazol-2-yl]acetamide]: the IC50 (as a rule, the point on the concentration scale where inhibition reaches its midpoint) worked out at 41 nM.
`CC(C)n1cc(-c2cc(F)c3nc(C(C(=O)NCC(=O)NC4CC4)S(=O)(=O)c4ccc(F)cc4)sc3c2)ccc1=O` (stereo not drawn) [Example 470, N-[(cyclopropyl-carbamoyl)methyl]-2-{4-fluoro-6-[6-oxo-1-(propan-2-yl)-1,6-dihydropyridin-3-yl]-1,3-benzothiazol-2-yl}-2-(4-fluorobenzene-sulfonyl)acetamide]: the IC50 came out at 16 nM.
In the case of `Cc1ncc(-c2cc(F)c3nc(C(C(=O)NCC(=O)NC4CC4)S(=O)(=O)c4ccc(F)cc4)sc3c2)cn1` (stereo not drawn) [Example 471, N-[(cyclopropyl-carbamoyl)methyl]-2-[4-fluoro-6-(2-methylpyrimidin-5-yl)-1,3-benzothiazol-2-yl]-2-(4-fluorobenzene-sulfonyl)acetamide], the IC50 turned out to be 23 nM.
Turning to `O=C(CNC(=O)C(c1nc2c(F)cc(-c3ccc(F)nc3)cc2s1)S(=O)(=O)c1ccc(F)cc1)NC1CC1` (stereo not drawn) [Example 472, N-[(cyclopropyl-carbamoyl)methyl]-2-[4-fluoro-6-(6-fluoropyridin-3-yl)-1,3-benzothiazol-2-yl]-2-(4-fluorobenzene-sulfonyl)acetamide], the midpoint of inhibition, the IC50, lay at 23 nM.
Consider `Cn1ccc(-c2cc(F)c3nc(C(C(=O)NCC(=O)NC4CC4)S(=O)(=O)c4ccc(F)cc4)sc3c2)cc1=O` (stereo not drawn) [Example 473, N-[(cyclopropyl-carbamoyl)methyl]-2-[4-fluoro-6-(1-methyl-2-oxo-1,2-dihydropyridin-4-yl)-1,3-benzothiazol-2-yl]-2-(4-fluorobenzene-sulfonyl)acetamide], for which the IC50 was 77 nM.
For the molecule `O=C(CNC(=O)C(c1nc2c(F)cc(-c3cncnc3)cc2s1)S(=O)(=O)c1ccc(F)cc1)NC1CC1` (stereo not drawn) [Example 474, N-[(cyclopropyl-carbamoyl)methyl]-2-[4-fluoro-6-(pyrimidin-5-yl)-1,3-benzothiazol-2-yl]-2-(4-fluorobenzene-sulfonyl)acetamide], inhibition was half-maximal at 116 nM (IC50).
The molecule `O=C(CNC(=O)C(c1nc2c(F)cc(-c3ccc4[nH]c(=O)ccc4c3)cc2s1)S(=O)(=O)c1ccc(F)cc1)NC1CC1` (stereo not drawn) [Example 475, N-[(cyclopropyl-carbamoyl)methyl]-2-[4-fluoro-6-(2-oxo-1,2-dihydroquinolin-6-yl)-1,3-benzothiazol-2-yl]-2-(4-fluorobenzene-sulfonyl)acetamide] came in with an IC50 of 7 nM.
`O=C(CNC(=O)C(c1nc2c(F)cc(-c3cnc(C4CC4)nc3)cc2s1)S(=O)(=O)c1ccc(F)cc1)NC1CC1` (stereo not drawn) [Example 476, N-[(cyclopropyl-carbamoyl)methyl]-2-[6-(2-cyclopropyl-pyrimidin-5-yl)-4-fluoro-1,3-benzothiazol-2-yl]-2-(4-fluorobenzene-sulfonyl)acetamide] showed a half-maximal inhibitory concentration (IC50) of 51 nM.
The same measure, in the same setting: as for `O=C(CNC(=O)C(c1nc2c(F)cc(-c3ccc4c(c3)C(=O)NC4)cc2s1)S(=O)(=O)c1ccc(F)cc1)NC1CC1` (stereo not drawn) [Example 477, N-[(cyclopropyl-carbamoyl)methyl]-2-[4-fluoro-6-(3-oxo-2,3-dihydro-1H-isoindol-5-yl)-1,3-benzothiazol-2-yl]-2-(4-fluorobenzene-sulfonyl)acetamide], the figure is 68 nM; as for `COC(=O)Nc1ccc(-c2cc3sc(C(C(=O)NCC(=O)NC4CC4)S(=O)(=O)c4ccc(F)cc4)nc3cc2F)cc1` (stereo not drawn) [Example 478, methyl N-{4-[2-({[(cyclopropyl-carbamoyl)methyl]carbamoyl}(4-fluorobenzene-sulfonyl)methyl)-5-fluoro-1,3-benzothiazol-6-yl]phenyl}carbamate], 2 nM; as for `O=C(CNC(=O)C(c1nc2cc(F)c(-c3ccc(-n4ccccc4=O)cc3)cc2s1)S(=O)(=O)c1ccc(F)cc1)NC1CC1` (stereo not drawn) [Example 479, N-[(cyclopropyl-carbamoyl)methyl]-2-{5-fluoro-6-[4-(2-oxo-1,2-dihydropyridin-1-yl)phenyl]-1,3-benzothiazol-2-yl}-2-(4-fluorobenzene-sulfonyl)acetamide], 9 nM.
Same read-out and setting: as for `O=C(CNC(=O)C(c1nc2ccc(-c3cncnc3)cc2s1)S(=O)(=O)N1CCOCC1)NC1CC1` (stereo not drawn) [Example 481, N-[(cyclopropyl-carbamoyl)methyl]-2-(morpholine-4-sulfonyl)-2-[6-(pyrimidin-5-yl)-1,3-benzothiazol-2-yl]acetamide], the figure is 99 nM.
On to `O=C(CNC(=O)C(c1nc2ccc(-c3cccnc3F)cc2s1)S(=O)(=O)N1CCOCC1)NC1CC1` (stereo not drawn) [Example 482, N-[(cyclopropyl-carbamoyl)methyl]-2-[6-(2-fluoropyridin-3-yl)-1,3-benzothiazol-2-yl]-2-(morpholine-4-sulfonyl)acetamide], for which the concentration for half-maximal inhibition (IC50) came out at 173 nM.
As for `O=C(CNC(=O)C(c1nc2ccc(-c3ccc(F)nc3)cc2s1)S(=O)(=O)N1CCOCC1)NC1CC1` (stereo not drawn) [Example 483, N-[(cyclopropyl-carbamoyl)methyl]-2-[6-(6-fluoropyridin-3-yl)-1,3-benzothiazol-2-yl]-2-(morpholine-4-sulfonyl)acetamide], half-maximal inhibition (IC50) required 299 nM.
Turning to `CN(C)S(=O)(=O)C(C(=O)NCC(=O)NC1CC1)c1nc2ccc(-c3ccc(F)nc3)cc2s1` (stereo not drawn) [Example 484, N-[(cyclopropyl-carbamoyl)methyl]-2-(dimethyl-sulfamoyl)-2-[6-(6-fluoropyridin-3-yl)-1,3-benzothiazol-2-yl]acetamide], the IC50 was 7 nM.
On the same count and under the same terms, as for `Cn1ccc(-c2ccc3nc(C(C(=O)NCC(=O)NC4CC4)S(=O)(=O)N4CCOCC4)sc3c2)cc1=O` (stereo not drawn) [Example 485, N-[(cyclopropyl-carbamoyl)methyl]-2-[6-(1-methyl-2-oxo-1,2-dihydropyridin-4-yl)-1,3-benzothiazol-2-yl]-2-(morpholine-4-sulfonyl)acetamide], the figure is 57 nM.
The molecule `O=C(CNC(=O)C(c1nc2cc(F)c(-c3ccc(F)nc3)cc2s1)S(=O)(=O)N1CCOCC1)NC1CC1` (stereo not drawn) [Example 486, N-[(cyclopropyl-carbamoyl)methyl]-2-[5-fluoro-6-(6-fluoropyridin-3-yl)-1,3-benzothiazol-2-yl]-2-(morpholine-4-sulfonyl)acetamide] yielded an IC50 of 48 nM.
`Cc1cc(-c2cc3sc(C(C(=O)NCC(=O)NC4CC4)S(=O)(=O)N4CCOCC4)nc3cc2F)cnn1` (stereo not drawn) [Example 487, N-[(cyclopropyl-carbamoyl)methyl]-2-[5-fluoro-6-(6-methylpyridazin-4-yl)-1,3-benzothiazol-2-yl]-2-(morpholine-4-sulfonyl) acetamide] displayed an IC50 of 93 nM.
Molecule `COC(=O)Nc1ccc(-c2cc3sc(C(C(=O)NCC(=O)NC4CC4)S(=O)(=O)N4CCOCC4)nc3cc2F)cc1F` (stereo not drawn) [Example 488, methyl N-{4-[2-({[(cyclopropyl-carbamoyl)methyl]carbamoyl} (morpholine-4-sulfonyl)methyl)-5-fluoro-1,3-benzothiazol-6-yl]-2-fluorophenyl} carbamate] came in with an IC50 of 13 nM.
In turn, `CN(C)S(=O)(=O)C(C(=O)NCC(=O)NC1CC1)c1nc2c(F)cc(-c3ccc(F)nc3)cc2s1` (stereo not drawn) [Example 489, N-[(cyclopropyl-carbamoyl)methyl]-2-(dimethyl-sulfamoyl)-2-[4-fluoro-6-(6-fluoropyridin-3-yl)-1,3-benzothiazol-2-yl]acetamide] had an IC50 of 165 nM.
The molecule `Cc1cc(-c2cc(F)c3nc(C(C(=O)NCC(=O)NC4CC4)S(=O)(=O)N(C)C)sc3c2)cnn1` (stereo not drawn) [Example 490, N-[(cyclopropyl-carbamoyl)methyl]-2-(dimethyl-sulfamoyl)-2-[4-fluoro-6-(6-methypylridazin-4-yl)-1,3-benzothiazol-2-yl]acetamide] registered an IC50 of 207 nM.
The molecule `Cc1ncc(-c2cc(F)c3nc(C(C(=O)NCC(=O)NC4CC4)S(=O)(=O)N(C)C)sc3c2)cn1` (stereo not drawn) [Example 491, N-[(cyclopropyl-carbamoyl)methyl]-2-(dimethyl-sulfamoyl)-2-[4-fluoro-6-(2-methylpyrimidin-5-yl)-1,3-benzothiazol-2-yl]acetamide] yielded an IC50 of 82 nM.
Consider `CN(C)S(=O)(=O)C(C(=O)NCC(=O)NC1CC1)c1nc2c(F)cc(-c3ccc4[nH]c(=O)ccc4c3)cc2s1` (stereo not drawn) [Example 492, N-[(cyclopropyl-carbamoyl)methyl]-2-(dimethyl-sulfamoyl)-2-[4-fluoro-6-(2-oxo-1,2-dihydroquinolin-6-yl)-1,3-benzothiazol-2-yl]acetamide], for which the IC50 stood at 5 nM.
In the case of `CN(C)S(=O)(=O)C(C(=O)NCC(=O)NC1CC1)c1nc2c(F)cc(-c3ccc4c(=O)n(C)ccc4c3)cc2s1` (stereo not drawn) [Example 493, N-[(cyclopropyl-carbamoyl)methyl]-2-(dimethyl-sulfamoyl)-2-[4-fluoro-6-(2-methyl-1-oxo-1,2-dihydro-isoquinolin-6-yl)-1,3-benzothiazol-2-yl]acetamide], the midpoint of inhibition, the IC50, lay at 1 nM.

The test is the same for the next values; noted with them: EL from conditioned media of HT-1080 cells; 30 min preincubation at 37° C.
`COCCNC(=O)c1ccc(-c2ccc3nc(C(C(=O)NCC(=O)NC4CC4)S(=O)(=O)N4CCOCC4)sc3c2)cc1` (stereo not drawn) [Example 480, 4-[2-({[(Cyclopropylcarbamoyl)methyl]carbamoyl}(morpholine-4-sulfonyl)methyl)-1,3-benzothiazol-6-yl]-N-(2-methoxyethyl)benzamide] displayed an IC50 of 4 nM.

The record behind these values is patent US10173991B2, “Sulfone amide linked benzothiazole inhibitors of endothelial lipase” (BRISTOL-MYERS SQUIBB COMPANY, priority 2014, dated 2019).
